The term melting point denotes the temperature, or range, at which the solid turns liquid. As usually defined, the IC50 is the concentration at which inhibition is half-maximal.

For 20 compounds, melting point and IC50 results are on record in patent US6924276B2, “Diacid-substituted heteroaryl derivatives as matrix metalloproteinase inhibitors” (Warner-Lambert Company, priority 2001, dated 2005).

SMILES strings stand for the structures. Some results are limits rather than exact numbers.

Data set [1] concerns the target MMP-13CD (catalytic domain of collagenase-3) (Homo sapiens, UniProt P45452). As to the kind of experiment: thiopeptolide substrate hydrolysis assay, MMP-13CD. Format: biochemical. An excerpt: (§1) The invention compounds of Formula I have been evaluated in standard assays for their ability to inhibit the activity of various MMP enzymes. The assays used to evaluate the biological activity of the invention compounds are well known and routinely used by those skilled in the study of MMP inhibitors and their use to treat clinical conditions.
(§2) Such assays are described in detail by Ye et al., in Biochemistry, 1992;31(45):11231-11235, which is incorporated herein by reference.
(§3) Thiopeptolide substrates show virtually no decomposition or hydrolysis in the absence of a matrix metalloproteinase enzyme. A typical thiopeptolide substrate commonly utilized for assays is Ac-Pro-Leu-Gly-thioester;-Leu-Leu-Gly-OEt. A 100 μL assay mixture will contain 50 mM of 2-morpholinoethane sulfonic acid monohydrate (MES, pH 6.0) 10 mM CaCl2, 100 μM thiopeptolide substrate, and 1 mM 5,5′-dithio-bis-(2-nitro-benzoic acid) (DTNB). The thiopeptolide substrate concentration is varied from 10 to 800 μM to obtain Km and Kcat values. The change in absorbance at 405 nm is monitored on a Thermo Max microplate reader (Molecular Devices, Menlo Park, Calif.) at room temperature (22° C.). The calculation of the amount of hydrolysis of the thiopeptolide substrate is based on E412=13600 m^−1 cm^−1 for the DTNB-derived product 3-carboxy-4-nitrothiophenoxide. Assays are carried out with and without matrix metalloproteinase inhibitor compounds, and the amount of hydrolysis is compared for a determination of inhibitory activity of the test compounds.
Several representative compounds have been evaluated for their ability to inhibit various matrix metalloproteinase enzymes. The invention compounds are uniquely active in inhibiting MMP-13. Table 1 below presents inhibitory activity for invention compounds in the column labelled “MMP-13CD IC50, μM”. In the table, MMP-13CD refers to the catalytic domain of collagenase-3. It has been shown previously (Ye Qi-Zhuang, Hupe D., Johnson L., Current Medicinal Chemistry, 1996;3:407-418) that inhibitor activity against a catalytic domain of an MMP is predictive of the inhibitor activity against the respective full-length enzyme. Test compounds were evaluated at various concentrations in order to determine their respective IC50 values, the micromolar concentration of compound required to cause a 50% inhibition of the hydrolytic activity of the respective enzyme.

The next data set deals with T1, MMP-7 (Homo sapiens, UniProt P09237).
T1 sequence (P09237 95-267): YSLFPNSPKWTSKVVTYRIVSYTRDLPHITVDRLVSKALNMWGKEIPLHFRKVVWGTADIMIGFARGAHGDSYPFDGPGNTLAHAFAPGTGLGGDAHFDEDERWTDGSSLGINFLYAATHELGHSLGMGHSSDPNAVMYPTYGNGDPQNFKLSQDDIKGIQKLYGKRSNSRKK
Kind of data set: thiopeptolide substrate hydrolysis assay, MMP-7. To be noted: Table 2. It is filed as biochemical.
From the text: as §1, §2, §3
(§4) The invention compounds are also selective inhibitors of MMP-13 versus other MMP enzymes, including versus MMP-7 and MMP-9. This is shown by comparing the IC50 data presented below in Table 2 in the columns labeled “MMP-7 IC50 (μM),” “MMP-9CD IC50 (μM),” and “MMP-13CD IC50 (μM),” respectively.

The next data set deals with T2, MMP-9CD (Homo sapiens, UniProt P14780).
T2 construct: "MMP-9CD"
T2 sequence (P14780 with tags, fused parts or gaps DEL216-390 limits assumed): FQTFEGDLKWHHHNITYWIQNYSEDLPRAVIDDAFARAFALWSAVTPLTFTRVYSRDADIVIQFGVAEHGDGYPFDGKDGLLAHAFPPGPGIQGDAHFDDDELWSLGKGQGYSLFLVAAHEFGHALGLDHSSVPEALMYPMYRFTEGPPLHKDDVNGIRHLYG
Kind of data set: thiopeptolide substrate hydrolysis assay, MMP-9CD. Format: biochemical. To be noted: Table 2, catalytic domain.
From the text: as §1, §2, §3, §4

For `O=C(OCc1ccc2c(c1)OCO2)c1ccc(C(=O)OCc2ccc3c(c2)OCO3)s1` [Example 1, Thiophene-2,5-dicarboxylic Acid di-1,3-benzodioxol-5-ylmethyl Ester], the melting point was in the range of 141 to 148 °C. In data set [1] (Table 1), this compound came in with an IC50 of 8.6 µM.
Consider `O=C(NCc1ccc2c(c1)OCO2)c1ccc(C(=O)NCc2ccc3c(c2)OCO3)s1` [Example 2, Thiophene-2,5-dicarboxylic Acid bis-[(1,3-benzodioxol-5-ylmethyl)-amide]], for which the melting point is 207 to 209 °C. On MMP-7, this compound displayed an IC50 of 30 µM. Also, on MMP-9CD, inhibition was half-maximal at 30 µM (IC50). This compound gave an IC50 in data set [1] (Table 1) of 0.85 µM.
In turn, `COc1cc(C(=O)OCc2ccc3c(c2)OCO3)sc1C(=O)OCc1ccc2c(c1)OCO2` [Example 3, 3-Methoxy-thiophene-2,5-dicarboxylic Acid di-1,3-benzodioxol-5-ylmethyl Ester] showed a melting point of 153 to 155 °C. Moreover, the half-inhibitory concentration (IC50) in data set [1] (Table 1) is 3.6 µM.
`COc1cc(C(=O)NCc2ccc3c(c2)OCO3)sc1C(=O)NCc1ccc2c(c1)OCO2` [Example 4, 3-Methoxy-thiophene-2,5-dicarboxylic Acid bis-[(1,3-benzodioxol-5-ylmethyl)-amide]]: the melting point fell in the range of 191 to 195 °C. In addition, the IC50 against MMP-7 came to 30 µM. Besides, half-maximal inhibition in data set [1] (Table 1) (IC50) required 0.2 µM.
In turn, `O=C(OCc1ccc2c(c1)OCO2)c1csc(C(=O)OCc2ccc3c(c2)OCO3)c1` [Example 5, Thiophene-2,4-dicarboxylic Acid di-1,3-benzodioxol-5-ylmethyl Ester] came in with a melting point of 164 to 165 °C. The compound also came in with an IC50 against MMP-7 of 10 µM. For the same compound, the half-inhibitory concentration (IC50) against MMP-9CD worked out at 30 µM. This compound also showed an IC50 in data set [1] (Table 1) of 0.45 µM.
In turn, `O=C(NCc1ccc2c(c1)OCO2)c1csc(C(=O)NCc2ccc3c(c2)OCO3)c1` [Example 6, Thiophene-2,4-dicarboxylic Acid bis-[(1,3-benzodioxol-5-ylmethyl)-amide]] showed a melting point of 174 to 175 °C. Moreover, on MMP-7, it took 32 µM to reach half-maximal inhibition (IC50). In data set [1] (Table 1), this compound showed an IC50 of 0.37 µM.
Turning to `Cn1cc(C(=O)OCc2ccc3c(c2)OCO3)cc1C(=O)OCc1ccc2c(c1)OCO2` [Example 7, 1-Methyl-1H-pyrrole-2,4-dicarboxylic Acid di-1,3-benzodioxol-5-ylmethyl Ester], the melting point lay within 103 to 110 °C. In addition, half-maximal inhibition in data set [1] (Table 1) (IC50) required 0.97 µM.
The like results for `Cn1cc(C(=O)NCc2ccc3c(c2)OCO3)cc1C(=O)NCc1ccc2c(c1)OCO2` [Example 8, 1-Methyl-1H-pyrrole-2,4-dicarboxylic Acid bis-[(1,3-benzodioxol-5-ylmethyl)-amide]] were, in that order, 147 to 152 °C and 3 µM.
In the case of `Cc1sc(C(=O)OCc2ccccc2)cc1NC(=O)Cc1ccccc1` [Example 9, 5-Methyl-4-phenylacetylamino-thiophene-2-carboxylic Acid Benzyl Ester], the melting point was in the range of 173 to 174 °C. The compound further yielded a half-maximal inhibitory concentration (IC50) in data set [1] (Table 1) of 2.3 µM.
For `Cc1sc(C(=O)NCc2ccccc2)cc1NC(=O)Cc1ccccc1` [Example 10, 5-Methyl-4-phenylacetylamino-thiophene-2-carboxylic Acid Benzylamide], the IC50 (against MMP-9CD; in data set [1] (Table 1)) was 30 µM throughout.
The compound `Cc1sc(C(=O)OCc2ccc3c(c2)OCO3)cc1NC(=O)Cc1ccccc1` [Example 11, 5-Methyl-4-phenylacetylamino-thiophene-2-carboxylic Acid 1,3-benzodioxol-5-ylmethyl Ester] returned an IC50 in data set [1] (Table 1) of 0.19 µM.
On to `Cc1sc(C(=O)NCc2ccc3c(c2)OCO3)cc1NC(=O)Cc1ccccc1` [Example 12, 5-Methyl-4-phenylacetylamino-thiophene-2-carboxylic Acid (1,3-benzodioxol-5-ylmethyl)-amide], for which the melting point lay in the range of 138 to 140 °C. The IC50 in data set [1] (Table 1) turned out to be 2.7 µM.
For `Cc1sc(C(=O)OCc2ccccc2)cc1NC(=O)NCc1ccccc1` [Example 13, 4-(3-Benzyl-ureido)-5-methyl-thiophene-2-carboxylic Acid Benzyl Ester], the melting point fell in the range of 208 to 209 °C. For the same compound, the IC50 against MMP-7 was found to be 30 µM. This compound also returned an IC50 on MMP-9CD of 30 µM. Besides, in data set [1] (Table 1), the concentration for half-maximal inhibition (IC50) is 22 µM.
`Cc1sc(C(=O)NCc2ccccc2)cc1NC(=O)NCc1ccccc1` [Example 14, 4-(3-Benzyl-ureido)-5-methyl-thiophene-2-carboxylic Acid Benzylamide]: the results for the IC50 (against MMP-9CD; in data set [1] (Table 1)) were 99 µM and 14 µM, respectively.
In turn, `Cc1sc(C(=O)OCc2ccc3c(c2)OCO3)cc1NC(=O)NCc1ccccc1` [Example 15a, 4-(3-Benzyl-ureido)-5-methyl-thiophene-2-carboxylic Acid 1,3-benzodioxol-5-ylmethyl Ester] showed a melting point of 216 to 217 °C. In addition, half-maximal inhibition in data set [1] (Table 2) (IC50) required 0.35 µM.
Turning to `Cc1sc(C(=O)NCc2ccc3c(c2)OCO3)cc1NC(=O)NCc1ccccc1` [Example 15b, 4-(3-Benzyl-ureido)-5-methyl-thiophene-2-carboxylic Acid (1,3-benzodioxol-5-ylmethyl)-amide], the melting point fell in the range of 194 to 195 °C. This compound registered an IC50 at MMP-7 of 45 µM. Also, on MMP-9CD, the 50% inhibitory concentration (IC50) amounted to 30 µM. Moreover, in data set [1] (Table 1), 0.92 µM corresponded to half-maximal inhibition (IC50).
Consider `COC(=O)c1cc(NC(=O)NCc2ccccc2)c(C)s1` [Example 16, 5-Methyl-4-(3-benzyl-ureido)-thiophene-2-carboxylic Acid Methyl Ester], for which the melting point is 185 to 187 °C. Moreover, 2 µM corresponded to half-maximal inhibition in data set [1] (Table 1) (IC50).
Turning to `CNc1sc(C(=O)NCc2ccc(OC)cc2)cc1C(=O)NCc1ccc(C(=O)O)c(C)c1` [Example 21, 4-({[5-(4-Methoxy-benzylcarbamoyl)-2-methylamino-thiophene-3-carbonyl]-amino}-methyl)-2-methyl-benzoic Acid], the IC50 in data set [1] (Table 1) was 3.4 µM. In other words, the single-digit micromolar range.
`COc1cc(C(=O)NCc2ccccc2)sc1C(=O)NCc1ccccc1` [Example 22, 3-Methoxy-thiophene-2,5-dicarboxylic Acid Bis Benzylamide] came in with an IC50 in data set [1] (Table 1) not below 100 µM.
Turning to `O=C(NCc1ccccc1)Nc1nnc(C(=O)OCc2ccccc2)s1` [Example 23, 5-(3-Benzyl-ureido)-1,3,4-thiadiazole-2-carboxylic Acid Benzyl Ester], the melting point is 188 to 192 °C. Also, half-maximal inhibition in data set [1] (Table 1) (IC50) required 30 µM.
